From PMC8960621, “Solution speciation and human serum protein binding of indium(III) complexes of 8-hydroxyquinoline, deferiprone and maltol” (Journal of Biological Inorganic Chemistry, 2022)

Legend:
apo-transferrin (apoTf) [1] = target: T1, apo-transferrin (apoTf) (Homo sapiens, UniProt P02787); settings: similar conditions; cited from earlier work
T1 construct: purchased Sigma-Aldrich T2036

[2] = design: method as in PMID 25398250; settings: same LMM competitors in tenfold excess, investigated separately; cited from earlier work
[3] = target: T2, human serum albumin (HSA) (Homo sapiens, UniProt P02768); design: method as in PMID 25398250; settings: cited from earlier work
T2 construct: purchased Sigma-Aldrich A8763
T2 sequence (P02768 25-609): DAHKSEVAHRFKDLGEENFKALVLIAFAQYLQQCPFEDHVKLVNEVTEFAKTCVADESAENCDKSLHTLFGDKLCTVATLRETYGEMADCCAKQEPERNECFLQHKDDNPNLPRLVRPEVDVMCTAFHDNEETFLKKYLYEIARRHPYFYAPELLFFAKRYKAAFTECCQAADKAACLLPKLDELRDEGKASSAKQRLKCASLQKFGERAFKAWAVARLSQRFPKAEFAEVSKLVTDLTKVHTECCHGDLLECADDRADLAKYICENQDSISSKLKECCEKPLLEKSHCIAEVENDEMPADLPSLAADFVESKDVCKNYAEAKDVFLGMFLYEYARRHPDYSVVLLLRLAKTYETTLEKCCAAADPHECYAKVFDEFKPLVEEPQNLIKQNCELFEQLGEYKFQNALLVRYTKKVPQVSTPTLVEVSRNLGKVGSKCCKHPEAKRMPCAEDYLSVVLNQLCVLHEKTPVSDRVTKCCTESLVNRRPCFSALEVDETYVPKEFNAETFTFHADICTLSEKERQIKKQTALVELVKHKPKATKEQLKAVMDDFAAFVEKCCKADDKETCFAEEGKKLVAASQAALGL

apoTf [4] = target: T3, apoTf (Homo sapiens, UniProt P02787); experiment: Interaction with (apo)Tf: ligand displacement and binding of the intact complex (UV-vis, fluorescence, ultrafiltration); settings: pH 7.40
T3 construct: purchased Sigma-Aldrich T2036
T3 sequence (P02787 20-698): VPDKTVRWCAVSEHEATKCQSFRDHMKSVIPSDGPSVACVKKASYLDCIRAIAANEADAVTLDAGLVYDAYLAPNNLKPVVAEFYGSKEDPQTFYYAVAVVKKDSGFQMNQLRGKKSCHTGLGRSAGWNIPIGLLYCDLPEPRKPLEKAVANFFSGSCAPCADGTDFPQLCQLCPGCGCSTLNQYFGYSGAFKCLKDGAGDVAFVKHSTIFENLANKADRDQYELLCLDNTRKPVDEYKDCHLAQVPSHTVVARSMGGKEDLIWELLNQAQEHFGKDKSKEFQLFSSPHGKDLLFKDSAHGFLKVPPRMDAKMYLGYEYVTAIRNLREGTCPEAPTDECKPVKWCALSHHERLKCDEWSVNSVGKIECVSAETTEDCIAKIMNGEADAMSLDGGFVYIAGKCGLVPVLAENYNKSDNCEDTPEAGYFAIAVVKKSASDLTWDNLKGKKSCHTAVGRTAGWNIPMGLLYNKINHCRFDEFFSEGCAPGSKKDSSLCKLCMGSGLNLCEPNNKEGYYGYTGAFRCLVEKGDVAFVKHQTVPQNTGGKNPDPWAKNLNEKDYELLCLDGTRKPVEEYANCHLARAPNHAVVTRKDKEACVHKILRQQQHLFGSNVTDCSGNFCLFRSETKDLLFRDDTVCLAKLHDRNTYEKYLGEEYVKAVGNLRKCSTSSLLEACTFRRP
Protocol: Therefore, UV–vis and fluorescence emission spectra of InQ3 were recorded in the presence of increasing amounts of apoTf (Fig. 5a, b). After a short initial phase, the absorbance band of InQ3 is reduced gradually by the addition of the protein, while the development of the new band at lower wavelengths (at ca. 310 nm) refers to the liberation of HQ. Namely, there is a competition for In(III) ion between the ligand and the iron-binding sites of apoTf. Absorbance values depicted at 370 nm and 310 nm (Fig. 5c) saturate roughly to the corresponding values of the free ligand and outline a sigmoidal shape. Fluorescence intensity of the same sample set (Fig. 5b, d) was enhanced and moderately blue shifted (from λmax = 540 nm to 532 nm) until the addition of ca. 0.2 equiv. apoTf. […] Then, by the addition of more apoTf, intensities decreased and λmax shifted further to shorter wavelengths (527 nm). […] Based on this and the results of apoTf quenching (vide supra) protein binding of the non-dissociated complex is presumed. This is further supported by fluorescence lifetime measurements; where new lifetime components τ3 = 4.7 ± 0.2 ns and τ4 = 13.8 ± 0.4 ns appeared for InQ3 in the presence of 0.1 – 0.3 equiv. apoTf (after 1 min waiting time). […] Here, the sigmoid shape of the UV–vis absorbance was seen again (Fig. S5) and the shifted inflection point in comparison to the titration with apoTf underlines the lower In(III) binding capacity of Tf. […]
In the case of InD3, the absorbance bands of the metal complex and apoTf overlap in great extent, however, spectra can be deconvoluted to the spectra of InD3, deferiprone and apoTf (see Fig S6 for details), and molar fractions of the respective species can be calculated (Fig. 6). Ultrafiltration experiments were carried out as well for the InD3 – apoTf system and the non-protein bound LMM fractions were analyzed by UV–vis spectrophotometry (Fig. 6). […] The complex dissociated in line with the addition of apoTf and a practically quantitative displacement of deferiprone seems to take place by the addition of ca. 0.5 equiv. apoTf. […]

apo-transferrin (apoTf) [5] = target: T1, apo-transferrin (apoTf); experiment: Kinetics of the reaction with apoTf followed by UV-vis spectrophotometry; type: binding; settings: pH 7.40 (InCl3: 2 equiv.)
Protocol: Firstly, the kinetics of the reaction between apoTf and InCl3 and the complexes was studied by UV–vis spectrophotometry. The reaction of 2 equiv. […] At the same time Harris et al. have observed slow equilibration with InCl3, that was accelerated (to 6 h) in the presence of NTA [18]. In the case of InQ3 and InD3, the progress of apoTf binding could be followed through the ligand bands of the complexes. […] The Ga(III)-analogue GaQ3 interacted within 1 h with apoTf under similar conditions.
For (apo)Tf containing samples, complex concentrations were 20 μM and 0–2.5 equiv. protein was added. Reference spectra for the complexes, ligands and protein were recorded as well. Samples prepared with blood serum contained three-fold diluted serum and 10 μM metal complexes. UV–vis spectra presented in this paper for complexes InD3 or InQ3 are subtracted by the spectrum of reference protein (HSA (apo)Tf or serum) sample in all cases in favour of the better interpretation of the results.

apoTf [6] = target: T3, apoTf; experiment: Fluorescence lifetime (TCSPC) of InQ3 in the presence of apoTf; type: binding; settings: in the presence of 0.1 – 0.3 equiv. apoTf, after 1 min waiting time
Protocol: Therefore, UV–vis and fluorescence emission spectra of InQ3 were recorded in the presence of increasing amounts of apoTf (Fig. 5a, b). After a short initial phase, the absorbance band of InQ3 is reduced gradually by the addition of the protein, while the development of the new band at lower wavelengths (at ca. 310 nm) refers to the liberation of HQ. Namely, there is a competition for In(III) ion between the ligand and the iron-binding sites of apoTf. Absorbance values depicted at 370 nm and 310 nm (Fig. 5c) saturate roughly to the corresponding values of the free ligand and outline a sigmoidal shape. Fluorescence intensity of the same sample set (Fig. 5b, d) was enhanced and moderately blue shifted (from λmax = 540 nm to 532 nm) until the addition of ca. 0.2 equiv. apoTf. […] Then, by the addition of more apoTf, intensities decreased and λmax shifted further to shorter wavelengths (527 nm). […] This is further supported by fluorescence lifetime measurements; where new lifetime components τ3 = 4.7 ± 0.2 ns and τ4 = 13.8 ± 0.4 ns appeared for InQ3 in the presence of 0.1 – 0.3 equiv. apoTf (after 1 min waiting time). […] Here, the sigmoid shape of the UV–vis absorbance was seen again (Fig. S5) and the shifted inflection point in comparison to the titration with apoTf underlines the lower In(III) binding capacity of Tf. […]

T1 sequence (P02787 20-698): as above

| Structure (SMILES) | time of interaction with apoTf (apo-transferrin (apoTf) [1]) [h] | effect of LMM competitors on the complex [2] | logK’ (HSA binding constant) [3] | binding via intermolecular interactions to apoTf (and Tf) (apoTf [4]; UV–vis and fluorescence) | time to reach equilibrium in the reaction with apoTf (apo-transferrin (apoTf) [5]) [h] | apoTf needed for practically quantitative displacement of the ligand (apoTf [4]; UV–vis deconvolution and ultrafiltration) | τ3 (apoTf [6]) [ns] | τ4 (apoTf [6]) [ns] |
| --- | --- | --- | --- | --- | --- | --- | --- | --- |
| [Ga+3].[O-]c1cccc2cccnc12.[O-]c1cccc2cccnc12.[O-]c1cccc2cccnc12 [GaQ3, Tris(8-Quinolinolato)gallium(III), reference compound] | ≤ 1 | practically not affected | 4.04 | no such binding was observed |  |  |  |  |
| Cc1c([O-])c(=O)ccn1C.Cc1c([O-])c(=O)ccn1C.Cc1c([O-])c(=O)ccn1C.[In+3] [InD3] |  |  |  |  | ~0.5 | ca. 0.5 equiv. |  |  |
| [In+3].[O-]c1cccc2cccnc12.[O-]c1cccc2cccnc12.[O-]c1cccc2cccnc12 [InQ3, Tris(8-Quinolinolato)indium(III)] |  |  |  |  | 3 to 4 |  | 4.7 ± 0.2 | 13.8 ± 0.4 |
